Results as given in US12065404B2, “C4-carboxylic acid-substituted tryptamine derivatives and methods of using” (priority 2022, dated 2024).
“And” between values parts separate entries of the source, which are not always exact repeats. Equal values may be shown once.

Test: Mouse pharmacokinetic (PK) study, parent compound and psilocin metabolite in plasma
Format: in vivo, C57Bl/6 mice
Conditions: for F(%), M37 considered as an outlier: i.v. animal M37 considered an outlier; for bioavailability: male, C57Bl/6, mouse, plasma, po
Source text: Briefly, the procedure was as follows. […] 19, 2022.

[1] = 10 mg/kg oral, AUC0-tlast used for p.o. group, individual animals
[2] = administered compound itself in plasma, 1 mg/kg i.v., individual animals, 1 mg/kg
[3] = administered compound itself in plasma, 1 mg/kg i.v., mean ± SD
[4] = administered compound itself in plasma, 1 mg/kg oral, individual animals, 1 mg/kg
[5] = administered compound itself in plasma, 1 mg/kg oral, mean ± SD, 1 mg/kg
[6] = administered compound itself in plasma, 3 mg/kg oral, individual animals, 3 mg/kg
[7] = administered compound itself in plasma, 3 mg/kg oral, mean ± SD
[8] = administered compound itself in plasma, 3 mg/kg oral, mean ± SD, 3 mg/kg
[9] = administered compound itself in plasma, 10 mg/kg oral, individual animals, 10 mg/kg
[10] = administered compound itself in plasma, 10 mg/kg oral, mean ± SD

Q: Which “Plasma concentration of psilocin” value (10 mg/kg oral C(I), 24 h, individual animals) does the source give for `CN(C)CCc1c[nH]c2cccc(OC(=O)c3ccc(Br)cc3)c12` [C(I)] here?
A: The value was “BLQ (BLQ denotes below the lower limit of quantitation (0.2 ng/ml).)”.

Q: What about the “F(%), M37 considered as an outlier” value [1] of the same molecule?
A: Its value is 2.71% and 2.90% and 4.06%.

Q: And the “F(%), M37 considered as an outlier” value (10 mg/kg oral, AUC0-tlast used for p.o. group, mean ± SD)?
A: The value was 3.22 ± 0.731%.

Q: And the “F(%)” value [1]?
A: Its value is 0.447% and 0.627%.

Q: And the AUC0-inf [2]?
A: The AUC0-inf was 1014 ng·h/mL and 64.4 ng·h/mL and 51.9 ng·h/mL.

Q: What about the AUC0-inf/Dose [2] of the same molecule?
A: The AUC0-inf/Dose was 1014 kg·ng·h/mL/mg and 64.4 kg·ng·h/mL/mg and 51.9 kg·ng·h/mL/mg.

Q: And the AUC0-tlast [2]?
A: The AUC0-tlast was 1006 ng·h/mL and 63.7 ng·h/mL and 51.4 ng·h/mL.

Q: And the AUC0-tlast/Dose [2]?
A: The AUC0-tlast/Dose was 1006 kg·ng·h/mL/mg and 63.7 kg·ng·h/mL/mg and 51.4 kg·ng·h/mL/mg.

Q: What about the “Apparent t1/2” value [2] of the same molecule?
A: The value was 72.6 min and 38.6 min.

Q: And the C0 [2]?
A: The C0 was 3792 ng/mL and 168 ng/mL and 132 ng/mL.

Q: And the CL [2]?
A: The CL was 16.4 mL/min/kg and 258.9 mL/min/kg and 321.08 mL/min/kg.

Q: And the MRT0-inf [2]?
A: Its MRT0-inf is 46.8 min and 39.4 min.

Q: And the Vss [2]?
A: The Vss was 0.56 L/kg and 12.109 L/kg and 12.65 L/kg.

Q: What about the AUC0-inf/Dose [3] of the same molecule?
A: Its AUC0-inf/Dose is 377 ± 552 kg·ng·h/mL/mg.

Q: And the AUC0-tlast/Dose [3]?
A: The AUC0-tlast/Dose was 374 ± 548 kg·ng·h/mL/mg.

Q: And the MRT0-inf [3]?
A: Its MRT0-inf is 40.1 ± 6.36 min.

Q: What about the AUC0-tlast/Dose (administered compound itself in plasma, 1 mg/kg i.v., mean, n = 2 (apparently without possible outlier M37)) of the same molecule?
A: The AUC0-tlast/Dose was 57.6 kg·ng·h/mL/mg.

Q: And the AUC0-tlast [4]?
A: Its AUC0-tlast is 2.09 ng·h/mL and 0.169 ng·h/mL and 1.75 ng·h/mL.

Q: And the AUC0-tlast/Dose [4]?
A: Its AUC0-tlast/Dose is 2.09 kg·ng·h/mL/mg and 0.169 kg·ng·h/mL/mg and 1.75 kg·ng·h/mL/mg.

Q: And the Cmax [4]?
A: The Cmax was 0.816 ng/mL and 0.54 ng/mL and 1.28 ng/mL.

Q: What about the Cmax/Dose [4] of the same molecule?
A: Its Cmax/Dose is 0.816 kg·ng/mL/mg and 0.54 kg·ng/mL/mg and 1.28 kg·ng/mL/mg.

Q: What about the AUC0-tlast/Dose [5] of the same molecule?
A: Its AUC0-tlast/Dose is 1.34 ± 1.02 kg·ng·h/mL/mg and 1.34 kg·ng·h/mL/mg.

Q: And the Cmax/Dose [5]?
A: Its Cmax/Dose is 0.877 ± 0.376 kg·ng/mL/mg and 0.877 kg·ng/mL/mg.

Q: And the AUC0-tlast [6]?
A: The AUC0-tlast was 5.47 ng·h/mL and 5.91 ng·h/mL.

Q: And the AUC0-tlast/Dose [6]?
A: The AUC0-tlast/Dose was 1.75 kg·ng·h/mL/mg and 1.82 kg·ng·h/mL/mg and 1.97 kg·ng·h/mL/mg.

Q: What about the Cmax [6] of the same molecule?
A: Its Cmax is 2.16 ng/mL and 2.34 ng/mL.

Q: And the Cmax/Dose [6]?
A: The Cmax/Dose was 0.650 kg·ng/mL/mg and 0.720 kg·ng/mL/mg and 0.780 kg·ng/mL/mg.

Q: What about the tmax [6] of the same molecule?
A: Its tmax is 15 min.

Q: And the AUC0-tlast [7]?
A: The AUC0-tlast was 5.54 ± 0.330 ng·h/mL.

Q: And the Cmax [7]?
A: The Cmax was 2.15 ± 0.195 ng/mL.

Q: And the AUC0-tlast/Dose [8]?
A: The AUC0-tlast/Dose was 1.85 ± 0.110 kg·ng·h/mL/mg and 1.85 kg·ng·h/mL/mg.

Q: And the Cmax/Dose [8]?
A: Its Cmax/Dose is 0.717 ± 0.0651 kg·ng/mL/mg and 0.717 kg·ng/mL/mg.

Q: And the AUC0-inf [9]?
A: Its AUC0-inf is 24.1 ng·h/mL.

Q: What about the AUC0-tlast [9] of the same molecule?
A: Its AUC0-tlast is 16.8 ng·h/mL and 23.6 ng·h/mL.

Q: And the AUC0-tlast/Dose [9]?
A: The AUC0-tlast/Dose was 1.58 kg·ng·h/mL/mg and 1.68 kg·ng·h/mL/mg and 2.36 kg·ng·h/mL/mg.

Q: What about the “Apparent t1/2” value [9] of the same molecule?
A: The value was 70.2 min.

Q: What about the Cmax [9] of the same molecule?
A: The Cmax was 7.10 ng/mL and 10.9 ng/mL.

Q: And the Cmax/Dose [9]?
A: The Cmax/Dose was 0.720 kg·ng/mL/mg and 0.710 kg·ng/mL/mg and 1.09 kg·ng/mL/mg.

Q: And the MRT0-inf [9]?
A: The MRT0-inf was 144 min.

Q: And the tmax [9]?
A: Its tmax is 30 min.

Q: And the AUC0-tlast/Dose [10]?
A: Its AUC0-tlast/Dose is 1.87 ± 0.425 kg·ng·h/mL/mg.

Q: What about the Cmax/Dose [10] of the same molecule?
A: Its Cmax/Dose is 0.840 ± 0.217 kg·ng/mL/mg.

Q: And the bioavailability (1 mg/kg, 1 mg/kg oral, AUC0-tlast used for p.o. group, value might be under-estimated, mean ± SD)?
A: The bioavailability was 0.355 ± 0.272%.

Q: And the bioavailability (3 mg/kg, 3 mg/kg oral, AUC0-tlast used for p.o. group, value might be under-estimated, individual animals)?
A: The bioavailability was 0.466%.

Q: And the bioavailability (3 mg/kg, 3 mg/kg oral, AUC0-tlast used for p.o. group, value might be under-estimated, mean ± SD)?
A: The bioavailability was 0.491 ± 0.0292%.

Q: What about the bioavailability (10 mg/kg, 10 mg/kg oral, AUC0-tlast used for p.o. group, individual animals) of the same molecule?
A: The bioavailability was 0.419%.

Q: What about the bioavailability (10 mg/kg, 10 mg/kg oral, AUC0-tlast used for p.o. group, mean ± SD) of the same molecule?
A: Its bioavailability is 0.498 ± 0.113%.
